Test results reported in ChEMBL document CHEMBL1201862, “PubChem BioAssay data set” (2004).
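Each compound was tested at five concentrations against cells in 96-well plates for 48 hours. GI50 marks 50% less growth.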 Activity calls are given as the source filed them. No stated cut-off is given here; in the data, active = GI50 up to about 1.1 µM and inactive = higher.

What was measured:
Assay in all cases: NCI tumour cell line growth inhibition, 48 h
EKVX = test system: EKVX
HCT-15 = test system: HCT-15
MOLT-4 = test system: MOLT-4
SK-OV-3 = test system: SK-OV-3
OVCAR-5 = test system: OVCAR-5
NCI-H23 = test system: NCI-H23
HL-60 = test system: HL-60
SNB-19 = test system: SNB-19
ACHN = test system: ACHN
CAKI-1 = test system: CAKI-1
SR = test system: SR
DMS-114 = test system: DMS-114
LXFL 529 = test system: LXFL 529
HCC 2998 = test system: HCC 2998
U-251 = test system: U-251
OVCAR-3 = test system: OVCAR-3

Structure (SMILES)	GI50 (EKVX)	GI50 (HCT-15)	GI50 (MOLT-4)	GI50 (SK-OV-3)	GI50 (OVCAR-5)	GI50 (NCI-H23)	GI50 (HL-60)	GI50 (SNB-19)	GI50 (ACHN)	GI50 (CAKI-1)	GI50 (SR)	GI50 (DMS-114)	GI50 (LXFL 529)	GI50 (HCC 2998)	GI50 (U-251)	GI50 (OVCAR-3)
C=CCN(CC=C)CC(C(C)=O)C(c1ccccc1)c1c(O)c2ccccc2oc1=O (stereo unspecified)	> 100 µM (inactive)	> 100 µM	> 100 µM (inactive)	> 100 µM (inactive)	> 100 µM (inactive)	> 100 µM (inactive)	> 100 µM (inactive)	15.6 µM (inactive)	> 100 µM (inactive)	> 100 µM (inactive)	> 100 µM (inactive)	> 100 µM (inactive)	> 100 µM (inactive)	> 100 µM (inactive)	> 100 µM (inactive)	
CCc1cccc(=O)c([O-])c1.CCc1cccc(=O)c([O-])c1.[Bi+3].[Cl-]	13.8 µM (inactive)	3.66 µM	2.22 µM (inactive)	21.4 µM (inactive)	16.5 µM (inactive)	13.5 µM (inactive)	2.54 µM (inactive)	11 µM (inactive)	8.17 µM (inactive)	2.43 µM (inactive)	3.71 µM (inactive)	3.01 µM (inactive)	1.71 µM (inactive)	5.93 µM (inactive)	6.46 µM (inactive)	5.92 µM (inactive)
Brc1cc2c(cc1C1SCCS1)OCO2	> 100 µM (inactive)	> 100 µM	80.4 µM (inactive)	> 100 µM (inactive)	> 100 µM (inactive)	> 100 µM (inactive)	96.4 µM (inactive)	> 100 µM (inactive)	> 100 µM (inactive)	> 100 µM (inactive)	> 100 µM (inactive)	37.3 µM (inactive)	> 100 µM (inactive)	> 100 µM (inactive)	> 100 µM (inactive)	> 100 µM (inactive)
CC1=CP(=O)(OC(C)C)CC(C)=C1Cl (stereo unspecified)	> 100 µM (inactive)		32.7 µM (inactive)	> 100 µM (inactive)	> 100 µM (inactive)	> 100 µM (inactive)	> 100 µM (inactive)	> 100 µM (inactive)	> 100 µM (inactive)	> 100 µM (inactive)	41.1 µM (inactive)	> 100 µM (inactive)	> 100 µM (inactive)	> 100 µM (inactive)	> 100 µM (inactive)	> 100 µM (inactive)
CCOc1ccccc1NC(=O)CC1SC(Nc2ccc([N+](=O)[O-])cc2)=NC1=O (stereo unspecified)	27.5 µM (inactive)		19 µM (inactive)		29.1 µM (inactive)	16.6 µM (inactive)	32.6 µM (inactive)	29.3 µM (inactive)	17.3 µM (inactive)			13.1 µM (inactive)	17.7 µM (inactive)	16.4 µM (inactive)	14.3 µM (inactive)	14.5 µM (inactive)
CCOC(=O)C(=O)Nc1ccccc1C(C)C	> 100 µM (inactive)	> 100 µM	> 100 µM (inactive)	> 100 µM (inactive)	> 100 µM (inactive)	> 100 µM (inactive)	> 100 µM (inactive)	> 100 µM (inactive)	> 100 µM (inactive)	> 100 µM (inactive)	> 100 µM (inactive)	> 100 µM (inactive)	> 100 µM (inactive)	> 100 µM (inactive)	> 100 µM (inactive)	> 100 µM (inactive)
Cc1ccccc1NC(=O)/C(=N/NC(=O)CC#N)C1C(=O)N(c2ccccc2)N=C1N (stereo unspecified)	> 100 µM (inactive)	> 100 µM	72.9 µM (inactive)	> 100 µM (inactive)	> 100 µM (inactive)	> 100 µM (inactive)	37.9 µM (inactive)	> 100 µM (inactive)	60.1 µM (inactive)	> 100 µM (inactive)	52.1 µM (inactive)	> 100 µM (inactive)	> 100 µM (inactive)	> 100 µM (inactive)	> 100 µM (inactive)	> 100 µM (inactive)
COC(=O)N1C=CC2=C(C)C3Nc4ccccc4C3C(C)=C2C1 (stereo unspecified)	1.25 µM (inactive)	1.12 µM	0.234 µM (active)	1.86 µM (inactive)	2.72 µM (inactive)	4.54 µM (inactive)	1.98 µM (inactive)	2.97 µM (inactive)	0.521 µM (active)	5.35 µM (inactive)		23 µM (inactive)	0.953 µM (active)	1.95 µM (inactive)	3.1 µM (inactive)	0.923 µM (active)
O=C(N[C@H]1CC2(C=C(I)C(=O)C(I)=C2)OC1=O)OCc1ccccc1	14.3 µM (inactive)	20.9 µM		34.8 µM (inactive)	18.9 µM (inactive)	17.8 µM (inactive)	3.93 µM (inactive)	21.8 µM (inactive)	18.5 µM (inactive)	20.4 µM (inactive)		19.8 µM (inactive)	16.6 µM (inactive)	17.9 µM (inactive)	17.3 µM (inactive)	17.3 µM (inactive)
CNC(=O)OCc1nccc2c(C)c3[nH]c4ccc(OC)cc4c3cc12	16.7 µM (inactive)	3.03 µM	0.705 µM (active)	10.7 µM (inactive)	22 µM (inactive)	4.74 µM (inactive)	2.58 µM (inactive)	3.78 µM (inactive)	1.61 µM (inactive)	19.1 µM (inactive)	0.218 µM (active)	2.92 µM (inactive)	5.74 µM (inactive)	5.57 µM (inactive)	5.12 µM (inactive)	21.9 µM (inactive)
COc1ccc2cccc(C(=O)c3ccc(C)c4c3CCC4)c2c1	51.2 µM (inactive)	19 µM	27.6 µM (inactive)	64.3 µM (inactive)	34.3 µM (inactive)	34.1 µM (inactive)	14.6 µM (inactive)	> 100 µM (inactive)	56 µM (inactive)	31.7 µM (inactive)	23.6 µM (inactive)	32.4 µM (inactive)	29.6 µM (inactive)	19.6 µM (inactive)	53.7 µM (inactive)	35.2 µM (inactive)
CC(=O)c1ccc(NC(=O)/C(CC(=O)c2sc(-c3cccnc3)nc2C)=N/NC(N)=O)cc1	2.71 µM (inactive)	42.3 µM	19.3 µM (inactive)	> 100 µM (inactive)	45.1 µM (inactive)	> 10 µM (inactive)	29.5 µM (inactive)	53.6 µM (inactive)	22.4 µM (inactive)	23.2 µM (inactive)	33.1 µM (inactive)	> 100 µM (inactive)	41.4 µM (inactive)	> 10 µM (inactive)	68.1 µM (inactive)	> 100 µM (inactive)
CN1C(=O)CCC2[C@@H]3CC=C4C[C@@H](O)CC[C@]4(C)C3CC[C@@]21C (stereo partly specified)	67.5 µM (inactive)	71.6 µM	18.5 µM (inactive)	> 100 µM (inactive)	97.7 µM (inactive)	25.4 µM (inactive)	11.5 µM (inactive)		42.4 µM (inactive)	50.2 µM (inactive)		16.4 µM (inactive)	29.1 µM (inactive)	> 100 µM (inactive)	> 100 µM (inactive)	49.5 µM (inactive)
CCOc1ccccc1NC(=O)C1=C(C)NC(C)=C(C(=O)Nc2ccccc2OCC)C1c1ccc2c(c1)OCO2	39.6 µM (inactive)		12.1 µM (inactive)	18 µM (inactive)	53.2 µM (inactive)	23.9 µM (inactive)	10.7 µM (inactive)	95.9 µM (inactive)	36.8 µM (inactive)	21.5 µM (inactive)		16.9 µM (inactive)	17.9 µM (inactive)	10.1 µM (inactive)	47.5 µM (inactive)	17 µM (inactive)
COc1ccc(CN2C(=O)C(Cc3cc(OC)c(OC)c(C)c3OC)NC(=O)/C2=C/c2cc(OC)c(OC)c(C)c2OC)cc1 (stereo unspecified)	48.1 µM (inactive)		24.8 µM (inactive)	34 µM (inactive)	44.9 µM (inactive)	43.1 µM (inactive)	18.3 µM (inactive)		31.7 µM (inactive)		20.3 µM (inactive)	33.2 µM (inactive)	31.8 µM (inactive)	23.6 µM (inactive)	37.2 µM (inactive)	26.1 µM (inactive)
CN(C)CCNC(=O)c1ccc(Cl)c2c(Nc3ccc(S(=O)(=O)N=C(N)N)cc3)c3ccccc3nc12	11.4 µM (inactive)	5.02 µM	0.358 µM (active)		> 10 µM (inactive)	4.68 µM (inactive)	1.7 µM (inactive)	1.85 µM (inactive)	4.22 µM (inactive)		0.54 µM (active)	0.993 µM (active)	3.94 µM (inactive)	8.17 µM (inactive)	3.29 µM (inactive)	12.4 µM (inactive)
Cc1c(C(=O)O)oc2ccc([N+](=O)[O-])cc12	> 100 µM (inactive)	> 100 µM	> 10 µM (inactive)	> 100 µM (inactive)	> 100 µM (inactive)	> 100 µM (inactive)	> 100 µM (inactive)	> 100 µM (inactive)	> 100 µM (inactive)	> 100 µM (inactive)		> 100 µM (inactive)	> 100 µM (inactive)	> 100 µM (inactive)	> 100 µM (inactive)	> 100 µM (inactive)
CCOC(=O)C1=C(C)NC(=S)NC1c1ccccc1 (stereo unspecified)	> 100 µM (inactive)	> 41.3 µM	59.6 µM (inactive)	> 100 µM (inactive)	> 100 µM (inactive)	> 100 µM (inactive)	71.8 µM (inactive)		> 100 µM (inactive)	> 20 µM (inactive)	21.8 µM (inactive)	> 39.9 µM (inactive)	76.4 µM (inactive)	> 100 µM (inactive)	> 39.3 µM (inactive)	> 100 µM (inactive)
Cc1cccc(NC(=O)CC(=O)N2N=C(N(CCC#N)c3ccc(Cl)cc3)CC2c2ccccc2)c1 (stereo unspecified)			> 100 µM (inactive)		> 100 µM (inactive)	> 100 µM (inactive)	> 100 µM (inactive)	> 100 µM (inactive)	> 100 µM (inactive)	> 100 µM (inactive)	> 100 µM (inactive)	> 100 µM (inactive)	> 100 µM (inactive)	> 100 µM (inactive)	> 100 µM (inactive)	> 100 µM (inactive)
